Drawing on US9695171B2, “3,4-disubstituted-1 H-pyrrolo[2,3-b]pyridines and 4,5-disubstituted-7H-pyrrolo[2,3-c]pyridazines as LRRK2 inhibitors” (Pfizer Inc., priority 2013, dated 2017), this text covers EC50 for 13 compounds.

For orientation: EC50 means the concentration at which the effect is half-maximal.

The test deals with T1, GST-tagged truncated LRRK2 (Homo sapiens, UniProt Q5S007).
T1 construct: GST-tagged truncated LRRK2 from Invitrogen (Cat # PV4874); GST; purchased Invitrogen PV4874
The experiment in a line: LRRK2 kinase assay (Lantha Screen). The format is biochemical. Conditions: 1 mM ATP (head); a = geometric mean of >=4 determinations, b = single determination; read-out: LRRK2 LANTHA EC50 at 1 mM ATP; Geometric mean of 2-3 determinations unless otherwise indicated.

Each structure is given as a SMILES string.

T1 sequence (Q5S007 970-2527 limits assumed): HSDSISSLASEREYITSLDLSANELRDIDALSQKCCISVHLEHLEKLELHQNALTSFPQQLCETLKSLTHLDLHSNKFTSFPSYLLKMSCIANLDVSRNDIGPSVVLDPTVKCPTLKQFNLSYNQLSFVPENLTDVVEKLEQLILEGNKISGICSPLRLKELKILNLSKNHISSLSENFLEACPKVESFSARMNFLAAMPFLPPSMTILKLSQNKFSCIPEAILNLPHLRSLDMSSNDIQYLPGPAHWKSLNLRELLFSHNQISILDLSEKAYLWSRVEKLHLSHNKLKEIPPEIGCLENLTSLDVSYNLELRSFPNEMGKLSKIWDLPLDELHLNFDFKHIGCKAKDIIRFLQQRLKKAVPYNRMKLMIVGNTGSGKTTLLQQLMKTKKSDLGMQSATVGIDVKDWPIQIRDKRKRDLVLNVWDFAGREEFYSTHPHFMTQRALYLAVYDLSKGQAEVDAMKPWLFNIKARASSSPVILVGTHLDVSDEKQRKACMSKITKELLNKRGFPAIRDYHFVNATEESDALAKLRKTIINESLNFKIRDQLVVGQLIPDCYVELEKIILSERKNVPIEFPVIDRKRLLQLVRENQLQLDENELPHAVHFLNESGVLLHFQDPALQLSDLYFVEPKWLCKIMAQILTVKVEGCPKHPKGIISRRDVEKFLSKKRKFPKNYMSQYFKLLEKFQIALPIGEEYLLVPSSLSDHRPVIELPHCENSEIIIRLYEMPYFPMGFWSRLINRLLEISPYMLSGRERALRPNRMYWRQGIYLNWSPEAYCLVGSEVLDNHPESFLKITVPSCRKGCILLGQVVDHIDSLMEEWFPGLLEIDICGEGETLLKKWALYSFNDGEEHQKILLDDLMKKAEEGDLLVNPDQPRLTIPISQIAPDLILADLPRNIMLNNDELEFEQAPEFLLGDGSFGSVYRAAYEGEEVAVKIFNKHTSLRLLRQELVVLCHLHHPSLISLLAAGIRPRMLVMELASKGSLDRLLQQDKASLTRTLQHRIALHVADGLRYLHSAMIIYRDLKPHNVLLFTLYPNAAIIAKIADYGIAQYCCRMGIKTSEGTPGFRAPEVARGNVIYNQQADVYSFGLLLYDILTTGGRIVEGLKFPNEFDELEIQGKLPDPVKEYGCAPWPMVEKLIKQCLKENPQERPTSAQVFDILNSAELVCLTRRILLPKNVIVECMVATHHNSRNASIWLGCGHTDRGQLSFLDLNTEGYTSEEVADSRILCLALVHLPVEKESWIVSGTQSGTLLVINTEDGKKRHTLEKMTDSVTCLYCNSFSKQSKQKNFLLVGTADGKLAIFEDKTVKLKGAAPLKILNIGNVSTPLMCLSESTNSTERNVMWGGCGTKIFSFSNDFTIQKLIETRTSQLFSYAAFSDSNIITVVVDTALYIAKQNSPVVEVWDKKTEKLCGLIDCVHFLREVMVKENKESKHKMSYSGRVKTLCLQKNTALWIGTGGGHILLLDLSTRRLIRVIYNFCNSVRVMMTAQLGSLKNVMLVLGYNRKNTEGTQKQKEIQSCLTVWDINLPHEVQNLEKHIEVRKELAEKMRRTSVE

In the case of `COc1ccc(F)c(F)c1-c1c[nH]c2ncc(C#N)c(C3CC3)c12` [Example 100, 4-cyclopropyl-3-(2,3-difluoro-6-methoxyphenyl)-1H-pyrrolo[2,3-b]pyridine-5-carbonitrile], the EC50 turned out to be 99.2 nM.
The value for `Cn1cc(-c2ccnc3[nH]cc(-c4cccc(C#N)c4)c23)cn1` [Example 101, 3-[4-(1-methyl-1H-pyrazol-4-yl)-1H-pyrrolo[2,3-b]pyridin-3-yl]benzonitrile] was 101 nM; that for `Cn1cc(-c2c[nH]c3nccc(-c4ccncc4)c23)cn1` [Example 102, 3-(1-methyl-1H-pyrazol-4-yl)-4-(pyridin-4-yl)-1H-pyrrolo[2,3-b]pyridine] was 102 nM; that for `Cn1cc(-c2c[nH]c3nccc(-c4cc(F)cc(F)c4)c23)cn1` [Example 103, 4-(3,5-difluorophenyl)-3-(1-methyl-1H-pyrazol-4-yl)-1H-pyrrolo[2,3-b]pyridine] was 125 nM.
The value for `COc1ccc(-c2ccnc3[nH]cc(-c4cnn(C)c4)c23)cc1F` [Example 104, 4-(3-fluoro-4-methoxyphenyl)-3-(1-methyl-1H-pyrazol-4-yl)-1H-pyrrolo[2,3-b]pyridine] was 138 nM; that for `COc1ccc(-c2ccnc3[nH]cc(-c4cnn(C)c4)c23)c(F)c1` [Example 105, 4-(2-fluoro-4-methoxyphenyl)-3-(1-methyl-1H-pyrazol-4-yl)-1H-pyrrolo[2,3-b]pyridine] was 143 nM; that for `Cn1cc(-c2c[nH]c3nccc(-c4ccoc4)c23)cn1` [Example 106, 4-(furan-3-yl)-3-(1-methyl-1H-pyrazol-4-yl)-1H-pyrrolo[2,3-b]pyridine] was 144 nM.
Regarding `Cn1cc(-c2c[nH]c3nccc(-c4ccc5scnc5c4)c23)cn1` [Example 107, 5-[3-(1-methyl-1H-pyrazol-4-yl)-1H-pyrrolo[2,3-b]pyridin-4-yl]-1,3-benzothiazole], the EC50 was 169 nM.
For the compound `Cn1cc(-c2c[nH]c3nccc(-c4cccc(CC#N)c4)c23)cn1` [Example 108, {3-[3-(1-methyl-1H-pyrazol-4-yl)-1H-pyrrolo[2,3-b]pyridin-4-yl]phenyl}acetonitrile], the EC50 stood at 185 nM.
`Cn1cc(-c2c[nH]c3nccc(-c4cccc(C#N)c4)c23)cn1` [Example 109, 3-[3-(1-methyl-1H-pyrazol-4-yl)-1H-pyrrolo[2,3-b]pyridin-4-yl]benzonitrile]: the EC50 amounted to 188 nM.
On to `Cn1cc(-c2c[nH]c3nncc(N4CCOCC4)c23)cn1` [Example 110, 5-(1-methyl-1H-pyrazol-4-yl)-4-(morpholin-4-yl)-7H-pyrrolo[2,3-c]pyridazine], for which the EC50 amounted to 201 nM.
Regarding `COCc1cccc(-c2ccnc3[nH]cc(-c4cnn(C)c4)c23)c1` [Example 111, 4-[3-(methoxymethyl)phenyl]-3-(1-methyl-1H-pyrazol-4-yl)-1H-pyrrolo[2,3-b]pyridine], the EC50 amounted to 234 nM.
As to `Cc1nnc(-c2cccc(-c3ccnc4[nH]cc(-c5cccc(C#N)c5)c34)c2)o1` [Example 112, 3-{4-[3-(5-methyl-1,3,4-oxadiazol-2-yl)phenyl]-1H-pyrrolo[2,3-b]pyridin-3-yl}benzonitrile], the EC50 is 234 nM.
